# PubChem BioAssay (NCI)
#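 Cultured in 96-well plates, cells were exposed to test compound for 48 hours across five concentrations. TGI denotes the concentration required for complete inhibition of growth.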
# Key:
# Assay in all cases: NCI anticancer screen, dose series, 48 h
# NCI-H226 lung = system: NCI-H226 lung
# K-562 leukemia = system: K-562 leukemia
# M14 melanoma = system: M14 melanoma
# EKVX NSCLC = system: EKVX NSCLC
# TK-10 renal = system: TK-10 renal
# MDA-MB-231 breast = system: MDA-MB-231 breast
# HCC-2998 colon = system: HCC-2998 colon
# CCRF-CEM leukemia = system: CCRF-CEM leukemia
# 786-0 renal = system: 786-0 renal
# HCT-15 colon = system: HCT-15 colon
# BT-549 breast = system: BT-549 breast
# OVCAR-3 ovarian = system: OVCAR-3 ovarian
# NCI-H23 lung = system: NCI-H23 lung
# MDA-MB-435 = system: MDA-MB-435
# HS 578T breast = system: HS 578T breast
# UACC-257 melanoma = system: UACC-257 melanoma
# NCI/ADR-RES ovarian = system: NCI/ADR-RES ovarian
# OVCAR-5 ovarian = system: OVCAR-5 ovarian
# LOX IMVI melanoma = system: LOX IMVI melanoma
Structure (SMILES),TGI (NCI-H226 lung) [µM],TGI (K-562 leukemia) [µM],TGI (M14 melanoma) [µM],TGI (EKVX NSCLC) [µM],TGI (TK-10 renal) [µM],TGI (MDA-MB-231 breast) [µM],TGI (HCC-2998 colon) [µM],TGI (CCRF-CEM leukemia) [µM],TGI (786-0 renal) [µM],TGI (HCT-15 colon) [µM],TGI (BT-549 breast) [µM],TGI (OVCAR-3 ovarian) [µM],TGI (NCI-H23 lung) [µM],TGI (MDA-MB-435) [µM],TGI (HS 578T breast) [µM],TGI (UACC-257 melanoma) [µM],TGI (NCI/ADR-RES ovarian) [µM],TGI (OVCAR-5 ovarian) [µM],TGI (LOX IMVI melanoma) [µM]
CC(=O)N(CCCCNC(=O)C(F)(F)F)CCCNC(=O)C(F)(F)F,> 100,> 100,> 100,> 100,> 100,> 100,> 100,> 100,> 100,> 100,> 100,> 100,> 100,> 100,> 100,> 100,> 100,> 100,–
CCc1ccc(/C=C/C(=O)C2CN(CC)CCC2(O)/C=C/c2ccc(CC)cc2)cc1 (configuration not stated),20.1,8.94,7.11,17.4,5.54,5.07,3.99,5.16,3.22,8.27,11.2,3.3,11.5,4.07,8.67,19.3,12.4,9.69,2.9
O=C(O)c1nc2ccccc2nc1NCc1ccc(F)cc1,> 100,> 100,> 100,> 100,> 100,> 100,> 100,> 100,> 100,42.8,> 100,> 100,> 100,> 100,> 100,> 100,> 100,> 100,> 100
Cn1cnc2c1c(=O)n(CCNCCO)c(=O)n2C,> 100,> 100,> 100,> 100,> 100,> 100,> 100,> 100,> 100,> 100,> 100,> 100,> 100,> 100,> 100,> 100,> 100,> 100,> 100
Cn1ccoc1=Nc1ccc(Cl)c(Cl)c1,> 10,> 10,> 10,> 10,> 10,> 10,> 10,> 10,> 10,> 10,> 10,> 10,> 10,> 10,> 10,> 10,> 10,> 10,> 10
OCCCCCCCCCCCOc1ccc(C2OCC3(CC=CCC3)CO2)cc1 (configuration not stated),52.9,–,26,23.8,32.1,31.4,38,55.6,30.5,32.3,30.9,57.3,31.6,38,40,38.2,36.3,46.3,25.2
CNN1C(=O)c2c(C)c(C)c(C#N)c(N)c2C1=O,> 100,> 100,> 100,> 100,> 100,> 100,> 100,> 100,> 100,> 100,> 100,> 100,–,> 100,> 100,> 100,> 100,> 100,> 100
O=c1c2cc(S(=O)(=O)Nc3ccc(Cl)cc3Cl)ccc2ncn1NS(=O)(=O)c1cccc2ccccc12,> 100,> 100,> 100,> 100,> 100,> 100,> 100,47.7,> 100,> 100,80.6,> 100,> 100,> 100,> 100,> 100,> 100,> 100,50
CCCCCCC1CC(=O)C1(Cl)Cl (configuration not stated),> 100,> 100,62.6,> 100,> 100,68.5,57.4,29.6,32.2,99.6,48.6,–,57.7,–,> 100,41.1,> 100,> 100,44.6
CCCCCC(=Nc1n[nH]nc1C(N)=O)OCC,> 100,> 100,> 100,> 100,> 100,> 100,> 100,> 100,> 100,> 100,> 100,> 100,> 100,> 100,> 100,> 100,> 100,> 100,> 100
C=C1CC(C)(COc2ccc3c(C)cc(=O)oc3c2)OC1=O (configuration not stated),26.2,> 31.9,3.35,17.8,4.06,15.5,9.5,2.46,5.65,4.23,7.56,11,14.1,8.92,31.9,4.35,17.6,16.5,5.11
COC(=O)c1ccc(/C=C2\Oc3cc(O)ccc3C2=O)cc1,> 100,> 100,> 100,> 100,> 100,> 100,> 100,> 100,> 100,> 100,> 100,> 100,> 100,> 100,> 100,> 100,> 100,–,–
CSc1nc(Br)nc2ncn(C3CC(Oc4ccc(C)cc4)C(COc4ccc(C)cc4)O3)c12 (configuration not stated),> 100,–,> 100,> 100,> 100,> 100,> 100,> 100,> 100,> 100,> 100,> 100,> 100,> 100,63.5,> 100,> 100,> 100,> 100
Cc1ccc(S(=O)(=O)Oc2nc3nc4ccccc4nc3nc2OS(=O)(=O)c2ccc(C)cc2)cc1,> 100,–,> 100,> 100,> 100,> 100,> 100,> 100,> 100,> 100,> 100,> 100,> 100,> 100,> 100,> 100,> 100,> 100,–
O=C(NCCCNCCCCNCCCNC(=O)c1cc(-c2ccccc2)nc2ccccc12)c1cc(-c2ccccc2)nc2ccccc12,–,3.83,5.23,18,23.8,> 100,4.61,3.63,3,44.1,15.5,15.9,> 24.1,–,4.32,13.3,74.2,5.26,3.12
N=c1oc2ccc(Cl)cc2cc1C(N)=O,78.1,> 100,> 100,–,–,69,47.4,> 100,73,69.2,> 100,64.9,75.1,82,63.9,> 100,> 100,> 100,> 100
O=C(Nc1ncc([N+](=O)[O-])s1)c1ccccc1O,27.1,> 100,79.7,> 92.2,> 100,> 77.5,> 100,–,> 100,> 86.9,79.2,> 42.4,> 70.5,66.7,32.5,98.4,> 82.4,> 100,> 100
O=S(=O)(Oc1ccc2ccccc2c1-c1c(OS(=O)(=O)C(F)(F)F)ccc2ccccc12)C(F)(F)F,> 100,> 100,> 100,> 100,–,> 100,> 100,> 100,> 100,> 100,> 100,> 100,> 100,> 100,> 100,8.3,> 100,> 100,–
COCOc1c(C(OCOC)c2cnc(Sc3ccccc3)n2C)ccc(OC)c1OC (configuration not stated),> 100,> 100,–,> 100,> 100,> 100,> 100,> 100,> 100,> 100,> 100,> 100,> 100,> 100,> 100,> 100,> 100,> 100,> 100
COc1ccc(/C=C2\N=C(c3ccccc3)OC2=O)cc1OC(C)=O,> 100,> 100,> 100,–,> 100,> 100,> 100,74.4,> 100,> 100,> 100,> 100,> 100,> 100,> 100,> 100,> 100,> 100,> 100
Cc1cc2c(cc1C)C(=O)/C(=C/c1ccccc1C(=O)O)C2,57.8,> 100,> 100,> 100,> 100,–,> 100,> 100,> 100,> 100,> 100,> 100,66.7,> 100,> 100,> 100,> 100,68.9,83.5
N#CCC1(c2ccc(Cl)cc2)NC(=O)c2ccccc21 (configuration not stated),> 100,> 100,> 100,> 100,> 100,> 100,–,> 100,> 100,> 100,> 100,> 100,> 100,> 100,> 100,> 100,> 100,> 100,> 100
COc1ccc2c(c1)CCc1c-2n(CCN2CCOCC2)c2ccc(OC)cc12,> 100,54,> 100,–,> 100,> 100,33.2,53.1,> 100,> 100,> 100,> 100,> 100,> 100,> 100,> 100,> 100,> 100,–
Nc1c(Br)cc(-c2nc3ccccc3s2)cc1Br,> 100,> 100,> 100,> 100,> 100,> 100,> 100,> 100,> 100,> 100,> 100,> 100,–,> 100,> 100,> 100,> 100,> 100,–
COC(=O)/C=C(\C)CC/C=C(\C)CCC(O)C(C)(C)O (configuration not stated),> 100,76.7,81.3,> 100,> 100,> 100,47.2,41.8,42.5,48,84,65.3,98.3,–,98.5,> 100,52.5,> 100,31.5
NS(=O)(=O)c1nnc(NS(=O)(=O)c2ccc(Cl)cc2)s1,> 100,> 100,> 100,> 100,> 100,> 100,> 100,–,> 100,> 100,> 100,> 100,> 100,> 100,> 100,> 100,> 100,> 100,> 100
